# Data from US20080200461A1, “MODULATORS OF ACETYL-COENZYME A CARBOXYLASE AND METHODS OF USE THEREOF” (Cropsolution, Inc., priority 2007, published 2008).
# Molecular target: Ustilago maydis K53R ACC (Mycosarcoma maydis, UniProt A0A0D1DYD5, K53R)
# Assay: biochemical
# Assay type: biochemical
smiles,measurement,value
"CC[N+](CC)(CCCCN(Cc1cc(C)cc(C)c1)Cc1cc(C)cc(C)c1)Cc1cc(C)cc(C)c1.[Br-] [Compound 28, Diethyl(3,5-dimethylbenzyl)[bis-(3,5-dimethylbenzyl)aminobutyl]ammonium formate]",IC50,52 µM
